Source: patent US7538112B2, “HIV integrase inhibitors” (Merck & Co., Inc., priority 2004, dated 2009)

System: viruses containing mutations in the integrase gene (T66I/S153Y, N155S, and F121Y)
Test: Sensitivity of viruses containing integrase mutations associated with resistance to other integrase inhibitors
Assay type: cell-based, HIV
Description: In preclinical laboratory experiments, it has been possible to select viruses resistant to integrase inhibitors in structural classes other than those embraced by the present invention, such as diketo acids, naphthyridine carboxamides, and dihydropyrimidine carboxamides. Mutations in the integrase gene that confer resistance (defined herein as greater than or equal to a 10-fold loss of sensitivity) to such compounds include T66I/S153Y, N155S, and F121Y. Certain compounds of the present invention have less than a 10-fold loss in sensitivity against viruses containing these and other mutations associated with resistance to other integrase inhibitors, and thus can be effective inhibitors of such viruses. Compounds of the present invention which are effective against such viruses include, for example, the compounds of Examples 37, 50, 56, 62, 69, 86, 87, 88, 151, 153, 159-A, 159-B, 166, 189, 193, and 205.

Row | SMILES | effective against viruses with integrase resistance mutations
1 | Cc1nn(Cc2ccc(F)cc2)c(=O)c2c(O)c3n(c12)[C@@H](C)CN(C(C)C)C3=O [Example 50, 6(S)-2-(4-Fluorobenzyl)-10-hydroxy-8-isopropyl-4,6-dimethyl-7,8-dihydropyrazino[1′,2′:1,5]pyrrolo[2,3-d]pyridazine-1,9(2H,6H)-dione] | effective
2 | CCN1C[C@H](C)n2c(c(O)c3c(=O)n(Cc4ccc(F)c(Cl)c4)nc(N(C)S(C)(=O)=O)c32)C1=O [Example 151, N-[(6S)-2-(3-Chloro-4-fluorobenzyl)-10-hydroxy-8-ethyl-6-methyl-1,9-dioxo-1,2,6,7,8,9-hexahydropyrazino[1′,2′:1,5]pyrrolo[2,3-d]pyridazin-4-yl]-N-methylmethanesulfonamide] | effective
3 | CCN1C[C@H](C)n2c(c(O)c3c(=O)n(Cc4ccc(F)c(Cl)c4)nc(S(=O)(=O)CC)c32)C1=O [Example 166, 6(S)-2-(3-Chloro-4-fluorobenzyl)-8-ethyl-10-hydroxy-4-(ethylsulfonyl)-6-methyl-7,8-dihydropyrazino[1′,2′:1,5]pyrrolo[2,3-d]pyridazine-1,9(2H,6H)-dione] | effective
4 | Cc1nn(Cc2ccc(F)cc2)c(=O)c2c(O)c3n(c12)C(C)CN(C)C3=O (stereo not shown) [Example 37, 2-(4-Fluorobenzyl)-10-hydroxy-4,6,8-trimethyl-7,8-dihydropyrazino[1′,2′:1,5]-pyrrolo[2,3-d]pyridazine-1,9(2H,6H)-dione] | effective
5 | CCNC(=O)c1nn(Cc2ccc(F)c(Cl)c2)c(=O)c2c(O)c3n(c12)[C@@H](C)CN(C(C)C)C3=O [Example 86, 6(S)-2-(3-Chloro-4-fluorobenzyl)-10-hydroxy-8-isopropyl-N-ethyl-6-methyl-1,9-dioxo-1,2,6,7,8,9-hexahydropyrazino[1′,2′:1,5]pyrrolo[2,3-d]pyridazine-4-carboxamide] | effective
6 | CCN1C[C@H](C)n2c(c(O)c3c(=O)n(Cc4ccc(F)c(Cl)c4)ncc32)C1=O [Example 189, 6(S)-2-(3-Chloro-4-fluorobenzyl)-10-hydroxy-8-ethyl-6-methyl-7,8-dihydropyrazino[1′,2′:1,5]pyrrolo[2,3-d]pyridazine-1,9(2H,6H)-dione] | effective
7 | CCN1CC(C)n2c(c(O)c3c(=O)n(Cc4ccc(F)c(Cl)c4)nc(N(CC)S(C)(=O)=O)c32)C1=O (racemic) [Example 159-B, N-[2-(3-Chloro-4-fluorobenzyl)-10-hydroxy-8-ethyl-6-methyl-1,9-dioxo-1,2,6,7,8,9-hexahydropyrazino[1′,2′:1,5]pyrrolo[2,3-d]pyridazin-4-yl]-N-ethylmethanesulfonamide] | effective
8 | CCN1C[C@H](C)n2c(c(O)c3c(=O)n(Cc4ccc(F)c(Cl)c4)nc(C(=O)NC)c32)C1=O [Example 62, 6(S)-2-(3-Chloro-4-fluorobenzyl)-8-ethyl-10-hydroxy-N,6-dimethyl-1,9-dioxo-1,2,6,7,8,9-hexahydropyrazino[1′,2′:1,5]pyrrolo[2,3-d]pyridazine-4-carboxamide] | effective
9 | CC(C)N1C[C@H](C)n2c(c(O)c3c(=O)n(Cc4ccc(F)cc4)nc(N(C)S(C)(=O)=O)c32)C1=O [Example 159-A, N-[(6S)-2-(4-Fluorobenzyl)-10-hydroxy-8-isopropyl-6-methyl-1,9-dioxo-1,2,6,7,8,9-hexahydropyrazino[1′,2′:1,5]pyrrolo[2,3-d]pyridazin-4-yl]-N-methylmethanesulfonamide] | effective
10 | CCNC(=O)c1nn(Cc2ccc(F)c(Cl)c2)c(=O)c2c(O)c3n(c12)CCN(C)C3=O [Example 69, 2-(3-Chloro-4-fluorobenzyl)-N-ethyl-10-hydroxy-8-methyl-1,9-dioxo-1,2,6,7,8,9-hexahydropyrazino[1′,2′:1,5]pyrrolo[2,3-d]pyridazine-4-carboxamide] | effective
11 | CCN1CC(CO)n2c(c(O)c3c(=O)n(Cc4ccc(F)cc4)nc(C)c32)C1=O (racemic) [Example 56, 8-Ethyl-2-(4-fluorobenzyl)-10-hydroxy-4-methyl-6-(hydroxymethyl)-7,8-dihydropyrazino[1′,2′:1,5]pyrrolo[2,3-d]pyridazine-1,9(2H,6H)-dione] | effective
12 | CC(C)N1C[C@H](C)n2c(c(O)c3c(=O)n(Cc4ccc(F)c(Cl)c4)nc(N(C)S(C)(=O)=O)c32)C1=O [Example 153, N-[(6S)-2-(3-Chloro-4-fluorobenzyl)-10-hydroxy-8-isopropyl-6-methyl-1,9-dioxo-1,2,6,7,8,9-hexahydropyrazino[1′,2′:1,5]pyrrolo[2,3-d]pyridazin-4-yl]-N-methylmethanesulfonamide] | effective
13 | CCN1CC(CO)n2c(c(O)c3c(=O)n(Cc4ccc(F)cc4)ncc32)C1=O (stereo not shown) [Example 205, 2-(4-Fluorobenzyl)-10-hydroxy-8-ethyl-6-hydroxymethyl-7,8-dihydropyrazino[1′,2′:1,5]pyrrolo[2,3-d]pyridazine-1,9(2H,6H)-dione] | effective
14 | CC(C)N1C[C@H](C)n2c(c(O)c3c(=O)n(Cc4ccc(F)c(Cl)c4)nc(C(=O)N(C)C)c32)C1=O [Example 88, 6(S)-2-(3-Chloro-4-fluorobenzyl)-10-hydroxy-8-isopropyl-N,N,6-trimethyl-1,9-dioxo-1,2,6,7,8,9-hexahydropyrazino[1′,2′:1,5]pyrrolo[2,3-d]pyridazine-4-carboxamide] | effective
15 | CC(C)N1C[C@H](C)n2c(c(O)c3c(=O)n(Cc4ccc(F)cc4)ncc32)C1=O [Example 193, 6(S)-2-(4-Fluorobenzyl)-10-hydroxy-8-isopropyl-6-methyl-7,8-dihydropyrazino[1′,2′:1,5]pyrrolo[2,3-d]pyridazine-1,9(2H,6H)-dione] | effective
16 | CCNC(=O)c1nn(Cc2ccc(F)cc2)c(=O)c2c(O)c3n(c12)[C@@H](C)CN(C(C)C)C3=O [Example 87, 6(S)-2-(4-Fluorobenzyl)-10-hydroxy-8-isopropyl-N-ethyl-6-methyl-1,9-dioxo-1,2,6,7,8,9-hexahydropyrazino[1′,2′:1,5]pyrrolo[2,3-d]pyridazine-4-carboxamide] | effective
